# Source: US8288433B2, “Diazeniumdiolate compounds, a process for their preparation and pharmaceutical compositions containing them” (Les Laboratoires Servier, priority 2007, dated 2012)
# Columns and labels:
# [1] = test system: conscious Wistar rats; experiment: Diuretic effect in vivo, urine volume in conscious rats; conditions: oral dose of 10 mg/kg, urine volume after 6 hours, relative to control group
# Procedure: The diuretic effect is tested on conscious Wistar rats. The animals are subjected to fasting for 18 h before the experiment and put on a diet of water 90 minutes before the experiment. The product under test is then administered orally by force-feeding, the rat is placed in a metabolism cage and the volume of urine is measured after 6 hours. The volume is expressed in relation to the volume measured in a control group of rats.
# [2] = test system: SD rats anaesthetised with pentobarbital; experiment: NO-donor activity in vivo, reduction of arterial pressure in anaesthetised rats; conditions: i.v. dose of 100 μg/kg
# Procedure: The NO-donor effect of the compound is evaluated by the reduction in pressure caused in SD rats anaesthetised with pentobarbital. After stabilisation of the arterial pressure, the product under test is administered i.v. in increasing doses.
# [3] = test system: Aorta rings without endothelium; experiment: NO-donor activity in vitro, relaxation of noradrenaline-contracted aorta rings; conditions: aorta rings without endothelium contracted by noradrenaline (0.1-0.3 μM); read-out: IC50 (relaxant effect)
# Procedure: Aorta rings without endothelium are used. After a first contraction induced by 60 mM KCl to characterise the sensitivity of the ring, and washing, a stable contraction is induced by noradrenaline (0.1-0.3 μM) in the presence or absence of ODQ. A cumulative concentration series is applied and the activity of the product under test is calculated by an IC50 (dose that inhibits the maximum effect by 50%).
Compound,increase of the excretion of urine [1],reduction of the arterial pressure [2],IC50 [3]
CCN(CC)/[N+]([O-])=N/OCOC(=O)c1cccc(CNS(=O)(=O)c2cc(C(=O)NN3c4ccc([N+](=O)[O-])cc4CC3C)ccc2Cl)c1 (stereo not drawn) [Example 1],108%,56%,120 nM
"CCN(CC)/[N+]([O-])=N/OCOC(=O)c1ccc(CNS(=O)(=O)c2cc(C(=O)NN3c4ccccc4C[C@H]3C)ccc2Cl)cc1 [Example 10, ({[(1Z)-2,2-diethyl-1-oxidohydrazono]amino}oxy)methyl 4-({[(2-chloro-5-{[(2R)-2-methyl-2,3-dihydro-1H-indol-1-yl]carbamoyl}phenyl)-sulphonyl]amino}methyl)benzoate]",248%,55%,40 nM
